Columns and labels:
Conditions in all cases: incubation time: 72 h
[1] = test system: CAL-120; assay: normalised viability (% of control), CellTiter-Blue; higher = more viable cells (about 100 = DMSO control)
How it was run: (§1)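 Breast cancer cell lines were treated for 72 h in 384-well format and measured by CellTiter-Blue fluorescence at 560/590 nm. Results were normalised per plate to vehicle (100) and a positive kill control (0). The entry is normalised viability at a single listed concentration of the series.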

[2] = test system: HDQ-P1; assay: as above
How it was run: as §1

[3] = test system: CAL-148; assay: normalised viability (% of control), CellTiter-Blue; higher = more viable cells (about 100 = DMSO control)
Description: (§2)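 DSRT, CellTiter-Blue viability, 72 h incubation. Signal is normalised to DMSO and benzethonium chloride controls. Value is the normalised response at dose 9.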

[4] = test system: CAL-51; assay: as above
Description: as §2

[5] = test system: CAL-85-1; assay: as above
Description: as §2

[6] = test system: DU-4475; assay: as above
Description: as §2

[7] = test system: HDQ-P1; assay: as above; remark: listed apart in the source
Description: as §2

[8] = test system: MDA-MB-453; assay: as above
Description: as §2

[9] = test system: BT-474; assay: normalised viability (% of control), CellTiter-Blue; higher = more viable cells (100 = DMSO, 0 = benzethonium chloride kill control)
Description: (§3)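 DSRT, CellTiter-Blue viability, 72 h incubation. Signal is normalised to DMSO and benzethonium chloride controls. Value is the normalised response at dose 1.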

[10] = test system: BT-549; assay: as above
Description: as §3

[11] = test system: CAL-120; assay: as above
Description: as §3

[12] = test system: CAL-148; assay: as above
Description: as §3

[13] = test system: CAL-51; assay: as above
Description: as §3

[14] = test system: CAL-85-1; assay: as above
Description: as §3

[15] = test system: DU-4475; assay: as above
Description: as §3

[16] = test system: HCC1143; assay: as above
Description: as §3

[17] = test system: HCC1599; assay: as above
Description: as §3

[18] = test system: HCC1937; assay: as above
Description: as §3

[19] = test system: HDQ-P1; assay: as above
Description: as §3

[20] = test system: Hs578T; assay: as above
Description: as §3

[21] = test system: MDA-MB-231; assay: as above
Description: as §3

[22] = test system: MDA-MB-436; assay: as above
Description: as §3

[23] = test system: MDA-MB-453; assay: as above
Description: as §3

[24] = test system: MDA-MB-468; assay: as above
Description: as §3

[25] = test system: MFM-223; assay: as above
Description: as §3

[26] = test system: SK-BR-3; assay: as above
Description: as §3

[27] = test system: CAL-148; assay: drug sensitivity score (DSS), CellTox Green (DSS (AUC-based score)); higher = stronger drug effect (viability inhibition or cytotoxicity); extreme values may be limits of the assay
How it was run: (§4)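 Breast cancer cells were seeded into 384-well plates containing compound at 5 concentrations in 10-fold steps over a compound-specific 10,000-fold range and incubated 72 h. After CellTox Green and CellTiter-Glo readings, each plate was normalised to 0.1 % DMSO and a positive kill control. The drug sensitivity score rests on the area under the fitted dose-response curve.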

[28] = test system: DU-4475; assay: as above
How it was run: as §4

CN(C)C[C@@H]1CCn2cc(c3ccccc32)C2=C(C(=O)NC2=O)c2cn(c3ccccc23)CCO1 [Ruboxistaurin]
normalised viability ([1]; 1000 nM): 110% | normalised viability ([2]; 30 nM): 84.3% | normalised viability ([3]; 10000 nM): 24.3% | normalised viability ([4]; 10000 nM): 27.4% | normalised viability ([5]; 10000 nM): 84.3% | normalised viability ([6]; 10000 nM): 1.01% | normalised viability ([7]; 10000 nM): 22.5% | normalised viability ([8]; 10000 nM): 0.78% | normalised viability ([9]; 1 nM): 118% | normalised viability ([10]; 1 nM): 91.4% | normalised viability ([11]; 1 nM): 120% | normalised viability ([12]; 1 nM): 126% | normalised viability ([13]; 1 nM): 98.9% | normalised viability ([14]; 1 nM): 106% | normalised viability ([15]; 1 nM): 97% | normalised viability ([16]; 1 nM): 127% | normalised viability ([17]; 1 nM): 120% | normalised viability ([18]; 1 nM): 106% | normalised viability ([19]; 1 nM): 70.7% | normalised viability ([20]; 1 nM): 94.8% | normalised viability ([21]; 1 nM): 92.5% | normalised viability ([22]; 1 nM): 101% | normalised viability ([23]; 1 nM): 98.5% | normalised viability ([24]; 1 nM): 96.8% | normalised viability ([25]; 1 nM): 104% | normalised viability ([26]; 1 nM): 99.3% | drug sensitivity score [27]: 10.6 | drug sensitivity score [28]: 0

C[C@]12CC[C@H](O)CC1=CC[C@@H]1[C@@H]2CC[C@]2(C)C(c3cccnc3)=CC[C@@H]12 [Abiraterone]
normalised viability ([1]; 500 nM): 81.4% | normalised viability ([2]; 15 nM): 108% | normalised viability ([3]; 5000 nM): 92.1% | normalised viability ([4]; 5000 nM): 92% | normalised viability ([5]; 5000 nM): 82.1% | normalised viability ([6]; 5000 nM): 93.3% | normalised viability ([7]; 5000 nM): 113% | normalised viability ([8]; 5000 nM): 89.2% | normalised viability ([9]; 0.5 nM): 86.1% | normalised viability ([10]; 0.5 nM): 111% | normalised viability ([11]; 0.5 nM): 78.9% | normalised viability ([12]; 0.5 nM): 103% | normalised viability ([13]; 0.5 nM): 97.6% | normalised viability ([14]; 0.5 nM): 82.8% | normalised viability ([15]; 0.5 nM): 99.4% | normalised viability ([16]; 0.5 nM): 86.6% | normalised viability ([17]; 0.5 nM): 102% | normalised viability ([18]; 0.5 nM): 99.8% | normalised viability ([19]; 0.5 nM): 109% | normalised viability ([20]; 0.5 nM): 95.3% | normalised viability ([21]; 0.5 nM): 96% | normalised viability ([22]; 0.5 nM): 114% | normalised viability ([23]; 0.5 nM): 108% | normalised viability ([24]; 0.5 nM): 102% | normalised viability ([25]; 0.5 nM): 90.2% | normalised viability ([26]; 0.5 nM): 96.1% | drug sensitivity score [27]: 0 | drug sensitivity score [28]: 0

CCCCCCCCc1ccc(CCC(N)(CO)CO)cc1 [Fingolimod]
normalised viability ([1]; 1000 nM): 88.5% | normalised viability ([2]; 30 nM): 126% | normalised viability ([3]; 10000 nM): 62.2% | normalised viability ([4]; 10000 nM): 91.8% | normalised viability ([5]; 10000 nM): 4.87% | normalised viability ([6]; 10000 nM): 136% | normalised viability ([7]; 10000 nM): 0.67% | normalised viability ([8]; 10000 nM): 2.6% | normalised viability ([9]; 1 nM): 97.7% | normalised viability ([10]; 1 nM): 106% | normalised viability ([11]; 1 nM): 82.3% | normalised viability ([12]; 1 nM): 96.8% | normalised viability ([13]; 1 nM): 117% | normalised viability ([14]; 1 nM): 85.8% | normalised viability ([15]; 1 nM): 122% | normalised viability ([16]; 1 nM): 92.5% | normalised viability ([17]; 1 nM): 105% | normalised viability ([18]; 1 nM): 96.5% | normalised viability ([19]; 1 nM): 130% | normalised viability ([20]; 1 nM): 97.6% | normalised viability ([21]; 1 nM): 95.6% | normalised viability ([22]; 1 nM): 113% | normalised viability ([23]; 1 nM): 94% | normalised viability ([24]; 1 nM): 106% | normalised viability ([25]; 1 nM): 94% | normalised viability ([26]; 1 nM): 102% | drug sensitivity score [27]: 0 | drug sensitivity score [28]: 0

O=C(O)CCCc1ccc(N(CCCl)CCCl)cc1 [Chlorambucil]
normalised viability ([1]; 1000 nM): 98.5% | normalised viability ([2]; 30 nM): 94.1% | normalised viability ([3]; 10000 nM): 89.7% | normalised viability ([4]; 10000 nM): 96.5% | normalised viability ([5]; 10000 nM): 98% | normalised viability ([6]; 10000 nM): 90.9% | normalised viability ([7]; 10000 nM): 115% | normalised viability ([8]; 10000 nM): 65% | normalised viability ([9]; 1 nM): 89.7% | normalised viability ([10]; 1 nM): 96.7% | normalised viability ([11]; 1 nM): 96.6% | normalised viability ([12]; 1 nM): 113% | normalised viability ([13]; 1 nM): 111% | normalised viability ([14]; 1 nM): 97.4% | normalised viability ([15]; 1 nM): 102% | normalised viability ([16]; 1 nM): 105% | normalised viability ([17]; 1 nM): 117% | normalised viability ([18]; 1 nM): 97.6% | normalised viability ([19]; 1 nM): 111% | normalised viability ([20]; 1 nM): 99.4% | normalised viability ([21]; 1 nM): 106% | normalised viability ([22]; 1 nM): 105% | normalised viability ([23]; 1 nM): 109% | normalised viability ([24]; 1 nM): 95.2% | normalised viability ([25]; 1 nM): 94.3% | normalised viability ([26]; 1 nM): 101% | drug sensitivity score [27]: 0 | drug sensitivity score [28]: 0

From the supplement of paper PMC4862054
